Measured values published in patent US20250347680A1, “METHODS OF OPTIMIZING KINASE INHIBITORS” (Brandeis University, priority 2024, published 2025).

How the values were obtained:
[1] = tested on: p38α phosphorylation in HL60 cells; assay: Western blot of p38α phosphorylation in HL60 cells after TNFα or LPS stimulation; type: cell-based, human; conditions: for level of dual-phosphorylated p38α in HL60 cells: 10 μM inhibitor 30 minutes after stimulation with TNFα (40 ng/mL) or LPS; for level of dual-phosphorylated p38α in HL60 cells / single-tyrosine phosphorylated p38α / phospho-tyrosine in HL60 cells (phospho-site specific antibody) / threonine phosphorylation of p38α in HL60 cells (phospho-site specific antibody): western blot; for single-tyrosine phosphorylated p38α / phospho-tyrosine in HL60 cells (phospho-site specific antibody) / threonine phosphorylation of p38α in HL60 cells (phospho-site specific antibody): 10 μM inhibitor after TNFα stimulation; for p38α threonine phosphorylation in cells harvested immediately after addition of inhibitor: cells pretreated with TNFα
Method: Cell culture, reagents and antibodies: HL60 cells were maintained in RPM I media supplemented with 2 mM L-glutamine and 10% fetal bovine serum (FBS) at 37° C. in a humidified atmosphere of 5% CO2. HL60-APPM1A were generated. The following antibodies were obtained from Cell Signaling Technologies (Danvers, MA); PPM1A (cat. #3549), p38 (cat. #9212) and 2p-p38 (cat. #4511). The following antibodies were obtained from A B Clonal (Woburn, MA); p38-phospho-Y182 (cat. #AP0057) and p38-phospho-T180 (cat. #AP0056). B-actin antibody (cat. #sc-47778) was obtained from Santa Cruz Biotechnology (Santa Cruz, CA). Recombinant human TNFα (cat. #300-01A) was obtained from Peprotech (Cranbury, NJ). Lipopolysaccharide (LPS) 500× solution (cat. #50-112-9325) was obtained from Invitrogen (Waltham, MA).
Cellular assays: HL60 cells were cultured in 6 well plates and grown until a density of 2 million cells/mL. […] Cells were spun down at 500 xg for 5 minutes, carefully washed with PBS once, and lysed with 50 μL RIPA buffer supplemented with 1:1000 phosphatase inhibitor and 1:500 benzonase. Lysates were centrifuged at 10,000 rpm for 15 minutes. Supernatant was harvested and lysate was either analyzed immediately or flash-frozen and stored at −80° C.
Western blot: Protein concentration of the lysate was determined using Bradford reagent normalized to a standard curve. 40-50 μg total protein per sample was separated on a 10% Tris-tricine polyacrylamide gel and then transferred to a polyvinylidene (PV DF) membrane using the Bio-Rad transfer system. Standard blotting protocol was followed. Primary antibodies (see antibody section) were incubated overnight at 4° C. followed by near-infrared (NIR) labeled secondary antibodies Goat anti-Rabbit IgG (H+L) Cross-Adsorbed Secondary Antibody, DyLight™ 800 (cat #. SA5-10036) or IgG (H+L) Cross-Adsorbed Goat anti-mouse, DyLight™ 680, Invitrogen™ (cat #. 35519) obtained from Invitrogen (Waltham, MA) for 1 hour at room temperature in 2.5% milk in TBST. Blots were washed and imaged on a LI-COR imaging instrument.

p38α = biological target: T1, p38α (Homo sapiens, UniProt Q16539); assay: WIP1 phosphatase assay: dephosphorylation of 32P-labelled dual-phosphorylated p38α bound to inhibitor; type: biochemical; conditions: p38α 0.25 μM, WIP1 2.5 μM, inhibitor 1.25 μM
T1 construct: 6-His (cleaved yes); made in house; host or cells: E. coli BL21 (DE3)
Method: (§1) Following initial incubation, excess cold ATP was added for a final concentration of 12 mM and was incubated overnight. Unincorporated nucleotide was removed by buffer exchange using a Zeba™ spin column equilibrated in 50 mM K·HEPES pH7.5, 100 mM NaCl. 6His-MKK6^EE was then removed by Ni-NTA resin equilibrated in 50 mM K·HEPES pH7.5, 100 mM NaCl, 20 mM imidazole. The flow-through fraction from the Ni-NTA resin containing p38-^32P was then exchanged into 50 mM K·HEPES pH7.5, 100 mM NaCl buffer using 3 subsequent Zeba spin columns to remove all unincorporated nucleotide and free phosphate. Labeled p38-^32P was aliquoted and frozen at −80° C. for future use.
WIP1 and PPM1A: All WIP1 phosphatase assays were performed at room temperature in 50 mM K HEPES pH7.5, 0.8 mM CHAPS, 0.05 mg/mL BSA, and 15 mM MnCl2. WIP1 concentration was 2.5 μM, PPM1A concentration was 0.5 μM and p38-^32P was 0.25 μM unless otherwise stated. […] Reactions were stopped with 0.5 MEDTA, pH8.0 and run on PEI-Cellulose TLC plates developed in 1 M LiCl2 and 0.8 M acetic acid and imaged on a Typhoon™ scanner. Phosphatase assays were performed more than three independent times as separate experiments. Data shown in figures is from a single representative experiment, and reported errors are the error from the fit unless indicated otherwise.

MKK6 (Homo sapiens) = tested on: T2, MKK6 (Homo sapiens); assay: Kinase assay: phosphorylation of p38α by MKK6; conditions: biochemical assay; 50 μM inhibitor, 25 μM p38
T2 construct: made in house; host or cells: E. coli BL21 (DE3)
Method: Kinase assay: All kinase assays were performed at room temperature in 20 mM K HEPES PH7.5, 0.5 mMEDTA, 20 mM MgCl2 and 2 mM DTT. […] MKK6^EE was added to 25 μM p38, 25 μM cold ATP and 1 μCi of γ-^32P ATP. 50 μM p38 inhibitors were added to a final DMSO concentration of 5%. Reactions were stopped with SDS and run on PEI-Cellulose TLC plates run through water then developed in 1 M LiCl2 and 0.8 M acetic acid and imaged on a Typhoon™ scanner.

p38 = p38 (Homo sapiens, UniProt Q16539); conditions: initial biochemical kinase screening; cited from earlier work
p38α (T180A) = biological target: T3, p38α (T180A) (Homo sapiens, UniProt Q16539, T180A); assay: DUSP3 dephosphorylation of single tyrosine phosphorylated p38α (T180A); type: biochemical; conditions: DUSP3 15 μM, p38α T180A 0.25 μM, 5-fold excess inhibitor
T3 construct: 6-His (cleaved yes); made in house; host or cells: E. coli BL21 (DE3)
Method: as §1
DUSP3: All DUSP3 phosphatase assays were performed in 50 mM K HEPES pH7.5 and 100 mM NaCl. Reactions were stopped with SDS and run on PEI-Cellulose TLC plates run through water then developed in 1 M LiCl2 and 0.8 M acetic acid and imaged on a Typhoon scanner. Phosphatase assays were performed more than three independent times as separate experiments. Data shown in figures is from a single representative experiment, and reported errors are the error from the fit unless indicated otherwise.
+p38^T180A_32P: Reactions were run at room temperature with 15 μM DUSP3 and 0.25 μM p38^T180A_32.

MKK6 = conditions: previous reports; cited from earlier work
[2] = single turnover, relative to DMSO control

T1 sequence (Q16539 whole entry): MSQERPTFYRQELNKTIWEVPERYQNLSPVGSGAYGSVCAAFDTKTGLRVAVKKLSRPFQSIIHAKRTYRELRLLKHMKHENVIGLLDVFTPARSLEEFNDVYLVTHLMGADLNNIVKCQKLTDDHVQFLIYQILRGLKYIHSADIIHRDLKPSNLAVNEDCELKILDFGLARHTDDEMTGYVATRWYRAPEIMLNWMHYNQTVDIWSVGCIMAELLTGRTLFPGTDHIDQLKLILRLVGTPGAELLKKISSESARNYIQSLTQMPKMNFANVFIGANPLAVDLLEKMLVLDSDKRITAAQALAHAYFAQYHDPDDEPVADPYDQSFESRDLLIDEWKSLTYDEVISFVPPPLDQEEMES
T3 sequence (Q16539 whole entry T180A): as the sequence (Q16539 whole entry) above, with T180A counted along it
T2 sequence (Q16539 whole entry): as the sequence (Q16539 whole entry) above
Sequence of p38 (Q16539 whole entry): as above

Cc1ccc(-n2nc(C(C)(C)C)cc2NC(=O)NCc2cc(F)ccc2Oc2ccc3c(cnn3CCO)c2)cc1 [pexmetinib]
level of dual-phosphorylated p38α in HL60 cells [1]: disappeared | single-tyrosine phosphorylated p38α / phospho-tyrosine in HL60 cells (phospho-site specific antibody) [1]: increase | threonine phosphorylation of p38α in HL60 cells (phospho-site specific antibody) [1]: disappearance | p38α threonine phosphorylation in cells harvested immediately after addition of inhibitor [1]: completely disappeared

Cc1c(F)cc(C(=O)NC2CC2)cc1-c1ccc(C(=O)NCC(C)(C)C)cn1 [losmapimod]
level of dual-phosphorylated p38α in HL60 cells [1]: caused disappearance | single-tyrosine phosphorylated p38α / phospho-tyrosine in HL60 cells (phospho-site specific antibody) [1]: did not accumulate

CCc1nc(-c2cccc(C)c2)c(-c2ccnc(NC(=O)c3ccccc3)c2)s1 [TAK-715]
level of dual-phosphorylated p38α in HL60 cells [1]: caused disappearance | single-tyrosine phosphorylated p38α / phospho-tyrosine in HL60 cells (phospho-site specific antibody) [1]: did not accumulate

CC(C)(C)Cn1c(N)nc2ccc(-c3[nH]c(C(C)(C)C)nc3-c3ccc(F)cc3)nc21 [LY2228820]
level of dual-phosphorylated p38α in HL60 cells [1]: increased | decrease of the rate of threonine dephosphorylation of p38α by WIP1 (p38α; [2]): 5 fold

NC(=O)c1ccc2[nH]ccc2c1 [SD-169]
effect on WIP1 threonine dephosphorylation of p38α (in words) (p38α): no change on phosphatase activity

O=c1ncn2nc(Sc3ccc(F)cc3F)ccc2c1-c1c(Cl)cccc1Cl [VX-745]
level of dual-phosphorylated p38α in HL60 cells [1]: caused disappearance | single-tyrosine phosphorylated p38α / phospho-tyrosine in HL60 cells (phospho-site specific antibody) [1]: did not accumulate | effect on WIP1 threonine dephosphorylation of p38α (in words) (p38α): did not affect

Cc1cn(-c2cc(NC(=O)c3ccc(C)c(Nc4nccc(-c5cccnc5)n4)c3)cc(C(F)(F)F)c2)cn1 [nilotinib]
threonine phosphorylation of p38α by MKK6 (MKK6 (Homo sapiens)): did not impact | level of dual-phosphorylated p38α in HL60 cells [1]: disappeared | single-tyrosine phosphorylated p38α / phospho-tyrosine in HL60 cells (phospho-site specific antibody) [1]: increase | threonine phosphorylation of p38α in HL60 cells (phospho-site specific antibody) [1]: disappearance | p38α threonine phosphorylation in cells harvested immediately after addition of inhibitor [1]: completely disappeared | binding of p38 compared to primary target ABL (p38): weak off-target binder | effect on rate of DUSP3 dephosphorylation of Y182 of p38α (T180A) (p38α (T180A)): no effect | increase of the rate of threonine dephosphorylation of p38α by WIP1 (p38α; [2]): four-fold

Cc1ccc(-n2nc(C(C)(C)C)cc2NC(=O)Nc2ccc(OCCN3CCOCC3)c3ccccc23)cc1 [BIRB 796]
level of dual-phosphorylated p38α in HL60 cells [1]: disappeared | single-tyrosine phosphorylated p38α / phospho-tyrosine in HL60 cells (phospho-site specific antibody) [1]: increase | threonine phosphorylation of p38α in HL60 cells (phospho-site specific antibody) [1]: disappearance | p38α threonine phosphorylation in cells harvested immediately after addition of inhibitor [1]: completely disappeared | MKK6 dual phosphorylation measured by ELISA (MKK6): block

Oc1ccc(-c2nc(-c3ccncc3)c(-c3ccc(F)cc3)[nH]2)cc1 [SB202190]
level of dual-phosphorylated p38α in HL60 cells [1]: increased | threonine phosphorylation of p38α in HL60 cells (phospho-site specific antibody) [1]: increased | effect on rate of DUSP3 dephosphorylation of Y182 of p38α (T180A) (p38α (T180A)): no effect | decrease of the rate of threonine dephosphorylation of p38α by WIP1 (p38α; [2]): 5 fold
